# Assay results from patent US20230382888A1, “HDAC INHIBITOR SOLID STATE FORMS” (Viracta Subsidiary, Inc., priority 2020, published 2023).
# Entries after “also recorded” stand apart in the source; their conditions may differ. Counter-ions that a name gives are not always drawn.
# Assay: Static storage stability at elevated temperature/humidity (XRPD, HPLC)
# Type: physicochemical
# Conditions: for Solid form by XRPD after static storage: 7 days (1 week); for Appearance after static storage: 1 week
Solid form by XRPD after static storage (25° C./97% RH),"Solid form by XRPD after static storage (25° C./97% RH, listed as amorphous)",Solid form by XRPD after static storage (40° C./75% RH),"Solid form by XRPD after static storage (40° C./75% RH, listed as amorphous)",Compound,Appearance after static storage (25° C./97% RH),Appearance after static storage (40° C./75% RH)
converted to Mesylate Form 1,–,converted to Mesylate Form 1,–,"O=C(NO)c1cnc(N2CC3C(C2)C3NCc2ccc3cc(F)ccc3n2)nc1 (centres unmarked) [Mesylate Form 7, N-hydroxy 2-{6-[(6-fluoro-quinolin-2-ylmethyl)-amino]-3-aza-bicyclo[3.1.0]hex-3-yl}pyrimidine-5-carboxamide]",–,–
Poorly crystalline-Mesylate Form 1,–,Mesylate Form 1,–,"O=C(NO)c1cnc(N2CC3C(C2)C3NCc2ccc3cc(F)ccc3n2)nc1 (centres unmarked) [Mesylate Form 9, N-hydroxy 2-{6-[(6-fluoro-quinolin-2-ylmethyl)-amino]-3-aza-bicyclo[3.1.0]hex-3-yl}pyrimidine-5-carboxamide]",Sample appeared wet-white solid still present,color change to yellow; also recorded: Sample appeared ‘damp’-yellow solid present

# The next lines start with the molecule.
Compound,Solid form by XRPD after static storage (25° C./97% RH),"Solid form by XRPD after static storage (25° C./97% RH, listed as amorphous)",Solid form by XRPD after static storage (40° C./75% RH),"Solid form by XRPD after static storage (40° C./75% RH, listed as amorphous)",Appearance after static storage (25° C./97% RH),Appearance after static storage (40° C./75% RH)
"O=C(NO)c1cnc(N2CC3C(C2)C3NCc2ccc3cc(F)ccc3n2)nc1 (centres unmarked) [amorphous mesylate salt, N-hydroxy 2-{6-[(6-fluoro-quinolin-2-ylmethyl)-amino]-3-aza-bicyclo[3.1.0]hex-3-yl}pyrimidine-5-carboxamide]","Amorphous, with low-level peak at 3.7° 2θ",largely amorphous,"Amorphous, with low-level peak at 3.7° 2θ",largely amorphous,–,–
"O=C(NO)c1cnc(N2CC3C(C2)C3NCc2ccc3cc(F)ccc3n2)nc1 (centres unmarked) [Mesylate Form 8, N-hydroxy 2-{6-[(6-fluoro-quinolin-2-ylmethyl)-amino]-3-aza-bicyclo[3.1.0]hex-3-yl}pyrimidine-5-carboxamide]",converted to Mesylate Form 1,–,converted to Mesylate Form 1,–,–,–
"O=C(NO)c1cnc(N2CC3C(C2)C3NCc2ccc3cc(F)ccc3n2)nc1 (centres unmarked) [Mesylate Form 6, N-hydroxy 2-{6-[(6-fluoro-quinolin-2-ylmethyl)-amino]-3-aza-bicyclo[3.1.0]hex-3-yl}pyrimidine-5-carboxamide]",converted to Mesylate Form 1,–,converted to Mesylate Form 1,–,–,–
